Experimental data published in patent publication US6943034B1, “Combinatorial strategies for polymer synthesis” (Affymetrix, Inc., priority 1991, dated 2005).
Where no end group is shown, it is not given here. [ ]: non-standard residue; d: D form.

Legend:
[1] = tested on: complementary base sequence 5′GCGTCGGC-F (SEQ ID NO:5); assay: Channel Matrix Hybridization Assay; type: binding; conditions: 10 nM target, 15° C., one hour; scanned in 6× SSPE buffer; result in words
Excerpt: A center region of a two by three inch slide was derivatized with bis(2-Hydroxyethyl) aminopropyltriethoxy silane. Six nucleosides were then coupled to the entire reaction region using a synthesis process consisting of deprotection, coupling, and oxidation steps for each monomer applied. These first six nucleosides were coupled in a reaction region defined by a 0.84 inch diameter circular well in an aluminum template clamped to the two by three inch slide.
The seventh and eighth monomers were applied to the substrate by flowing monomer solutions through 100 micron channels in an etched silicon channel block (employed in Example C above). The seventh base was coupled along the long axis (vertical) of the two-inch by three-inch slide, and the eighth base perpendicular to the seventh, along the short axis (horizontal) of the slide. This defined an active matrix region of 1.28 by 1.28 cm having a density of 2,500 reaction regions per square centimeter.
The complete octamer synthesized at the channel intersections formed by the seventh and eighth coupling steps had the following sequence: […]
After completion of the synthesis process, cleavage of exocyclic amines was performed by immersion of the reaction region in concentrated ammonium hydroxide. […] Finally, the reaction region was then scanned using a laser fluorescence detection system while immersed in the buffer.

Herz antibody 3E7 = assay: staining of substrate-bound peptide array with FITC-labelled antibodies, fluorescence intensity; type: binding; conditions: for overall intensity ratios YGGFL:YpGFL:pGGFL:ppGFL: fluorescence intensity of all sites on the slide after staining with FITC-labelled Herz antibody 3E7, ratio relative to ppGFL = 1.0; for fluorescence intensity of peptide sites (FIG. 19): slide stained with FITC-labelled Herz antibody 3E7, result in words
Excerpt: The system was used to synthesize four distinct peptides: YGGFL (SEQ ID NO:1), YpGFL (SEQ ID NO:2), pGGFL (SEQ ID NO:3), and ppGFL (SEQ ID NO:6) (the abbreviations are included in Stryer, Biochemistry, Third Ed. (1988), previously incorporated herein by reference; lower case letters indicate D-optical isomers and upper case letters indicate L-optical isomers). An entire glass substrate was derivatized with TBOC-protected aminopropyltriethoxysilane, deprotected with TFA, coated with FMOC-protected caproic acid (a linker), deprotected with piperidine, and coated with FMOC-protected Glycine-Phenylalanine-Leucine (GFL).
This FMOC-GFL-coated slide was sealed to the channel block, and all 10 grooves were deprotected with piperdine in DMF. After washing the grooves, FMOC Glycine (G) was injected in the odd grooves, and FMOC d-Proline (p) was injected in the even grooves. After a two-hour coupling time, using standard coupling chemistry, all grooves were washed with DMF. The grooves were vacuum dried, the block removed and rotated 90 degrees. After resealing, all grooves were deprotected with piperdine in DMF and washed. FMOC Tyrosine (Y) was injected in the odd grooves, and FMOC p in the even grooves. After coupling the grooves were washed and vacuum dried. Accordingly, 25 regions of each of the compounds YGGFL (SEQ ID NO:1), YpGFL (SEQ ID NO:2), pGGFL (SEQ ID NO:3), and ppGFL (SEQ ID NO:6) were synthesized on the substrate. The substrate was removed and stained with FITC-labelled antibodies (Herz antibody 3E7).

Substance | brightness (fluorescence) indicating hybridization with fluoresceinated target chain (FIG. 21) [1] | overall intensity ratios YGGFL:YpGFL:pGGFL:ppGFL (Herz antibody 3E7) | fluorescence intensity of peptide sites (FIG. 19) (Herz antibody 3E7)
Substrate—(3′)CGCAGCCG(5′) [full octamer] | brightest regions | – | –
YpGFL (Y[dP]GFL; also: substrate-bound) | – | 1.5 | –
YGGFL | – | 1.7 | most intense
pGGFL ([dP]GGFL; also: substrate-bound) | – | 1.1 | near background levels
ppGFL ([dP][dP]GFL; also: substrate-bound) | – | 1.0 | near background levels
